Results published in ChEMBL document CHEMBL1201862, “PubChem BioAssay data set” (2004).
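Interpolation was linear, between the two tested concentrations surrounding the appropriate level; five concentrations were tested over 48 hours in 96-well plates. GI50 is the concentration that inhibits growth by half.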 Calls of active or inactive are those of the source. Rule as the data show it: active = GI50 up to about 1.1 µM and inactive = higher.

Columns and labels:
Experiment in all cases: inhibition of tumour cell growth, NCI panel, 48 h
T47D = test system: T47D
SF-539 = test system: SF-539
RXF 393 = test system: RXF 393
DU-145 = test system: DU-145
TK-10 = test system: TK-10
SK-MEL-5 = test system: SK-MEL-5
UO-31 = test system: UO-31
Malme-3M = test system: Malme-3M
M14 = test system: M14
K562 = test system: K562
UACC-62 = test system: UACC-62
SW-620 = test system: SW-620
OVCAR-3 = test system: OVCAR-3
NCI-H460 = test system: NCI-H460
U-251 = test system: U-251
SR = test system: SR
A549 = test system: A549
MOLT-4 = test system: MOLT-4
NCI/ADR-RES = test system: NCI/ADR-RES
SN12C = test system: SN12C
PC-3 = test system: PC-3
UACC-257 = test system: UACC-257
A498 = test system: A498
HL-60 = test system: HL-60
786-0 = test system: 786-0
KM12 = test system: KM12
NCI-H23 = test system: NCI-H23
BT-549 = test system: BT-549
MCF7 = test system: MCF7
NCI-H226 = test system: NCI-H226
OVCAR-5 = test system: OVCAR-5
LOX IMVI = test system: LOX IMVI
SK-OV-3 = test system: SK-OV-3
CCRF-CEM = test system: CCRF-CEM
HCT-15 = test system: HCT-15
SF-295 = test system: SF-295
ACHN = test system: ACHN
CAKI-1 = test system: CAKI-1
SK-MEL-28 = test system: SK-MEL-28
HCC 2998 = test system: HCC 2998
SNB-19 = test system: SNB-19
SF-268 = test system: SF-268
OVCAR-4 = test system: OVCAR-4
HOP-62 = test system: HOP-62
MDA-MB-435 = test system: MDA-MB-435
HOP-92 = test system: HOP-92
COLO 205 = test system: COLO 205
HT-29 = test system: HT-29
SK-MEL-2 = test system: SK-MEL-2
SNB-75 = test system: SNB-75
Hs-578T = test system: Hs-578T
NCI-H522 = test system: NCI-H522
OVCAR-8 = test system: OVCAR-8
RPMI-8226 = test system: RPMI-8226
MDA-MB-231 = test system: MDA-MB-231
MDA-N = test system: MDA-N
IGROV-1 = test system: IGROV-1
HCT-116 = test system: HCT-116
EKVX = test system: EKVX

CC(N/N=C(\S)N1CCN(c2ccccn2)CC1)c1nccc2ccccc12 (stereo not given)
GI50 (T47D): < 0.01 µM (active)
GI50 (SF-539): 0.646 µM (active)
GI50 (RXF 393): 0.908 µM (active)
GI50 (DU-145): 1.32 µM (inactive)
GI50 (TK-10): 1.64 µM (inactive)
GI50 (SK-MEL-5): 0.897 µM (active)
GI50 (UO-31): 1.06 µM (active)
GI50 (Malme-3M): 1.03 µM (active)
GI50 (M14): 0.045 µM (active)
GI50 (K562): < 0.01 µM (active)
GI50 (UACC-62): 0.305 µM (active)
GI50 (SW-620): 0.316 µM (active)
GI50 (OVCAR-3): < 0.0121 µM (active)
GI50 (NCI-H460): 0.593 µM (active)
GI50 (U-251): 0.385 µM (active)
GI50 (SR): < 0.0218 µM (active)
GI50 (A549): 1.65 µM (inactive)
GI50 (MOLT-4): < 0.01 µM (active)
GI50 (NCI/ADR-RES): < 0.0216 µM (active)
GI50 (SN12C): 0.927 µM (active)
GI50 (PC-3): 0.589 µM (active)
GI50 (UACC-257): 0.0318 µM (active)
GI50 (A498): 5.71 µM (inactive)
GI50 (HL-60): < 0.01 µM (active)
GI50 (786-0): 0.693 µM (active)
GI50 (KM12): 3.16 µM (inactive)
GI50 (NCI-H23): 1.79 µM (inactive)
GI50 (BT-549): 10.4 µM (inactive)
GI50 (MCF7): 1.07 µM (active)
GI50 (NCI-H226): 1.83 µM (inactive)
GI50 (OVCAR-5): 0.453 µM (active)
GI50 (LOX IMVI): 0.804 µM (active)
GI50 (SK-OV-3): 0.241 µM (active)
GI50 (CCRF-CEM): < 0.01 µM (active)
GI50 (HCT-15): 0.641 µM
GI50 (SF-295): 1.3 µM (inactive)
GI50 (ACHN): 0.838 µM (active)
GI50 (CAKI-1): 1.61 µM (inactive)
GI50 (SK-MEL-28): 2.61 µM (inactive)
GI50 (HCC 2998): 0.769 µM (active)
GI50 (SNB-19): 2.56 µM (inactive)
GI50 (SF-268): 0.514 µM (active)
GI50 (OVCAR-4): 0.678 µM (active)
GI50 (HOP-62): 2.86 µM (inactive)
GI50 (MDA-MB-435): 1.66 µM (inactive)
GI50 (HOP-92): 0.957 µM (active)
GI50 (COLO 205): 0.119 µM (active)
GI50 (HT-29): < 0.01 µM (active)
GI50 (SK-MEL-2): 4.23 µM (inactive)
GI50 (SNB-75): 6.43 µM (inactive)
GI50 (Hs-578T): 12.9 µM (inactive)
GI50 (NCI-H522): 0.0782 µM (active)
GI50 (OVCAR-8): 0.104 µM (active)

N/C(=N\c1ccc(Cl)c(Cl)c1)c1ccccc1N
GI50 (RPMI-8226): 15.6 µM (inactive)
GI50 (RXF 393): 32.7 µM (inactive)
GI50 (DU-145): 51.9 µM (inactive)
GI50 (TK-10): 36.8 µM (inactive)
GI50 (SK-MEL-5): 22.6 µM (inactive)
GI50 (UO-31): 24.2 µM (inactive)
GI50 (Malme-3M): 19 µM (inactive)
GI50 (M14): 15.5 µM (inactive)
GI50 (MDA-MB-231): 25.3 µM (inactive)
GI50 (K562): 18.4 µM (inactive)
GI50 (UACC-62): 54.5 µM (inactive)
GI50 (SW-620): 63.8 µM (inactive)
GI50 (OVCAR-3): 39.5 µM (inactive)
GI50 (NCI-H460): 34.8 µM (inactive)
GI50 (U-251): 30.1 µM (inactive)
GI50 (A549): 25.3 µM (inactive)
GI50 (MOLT-4): 2.7 µM (inactive)
GI50 (MDA-N): 19.6 µM (inactive)
GI50 (NCI/ADR-RES): 19.2 µM (inactive)
GI50 (PC-3): 19.3 µM (inactive)
GI50 (IGROV-1): 13.3 µM (inactive)
GI50 (UACC-257): 27.1 µM (inactive)
GI50 (A498): 22.3 µM (inactive)
GI50 (HL-60): 22.2 µM (inactive)
GI50 (786-0): 28.2 µM (inactive)
GI50 (KM12): 33.6 µM (inactive)
GI50 (NCI-H23): 24.3 µM (inactive)
GI50 (BT-549): 24 µM (inactive)
GI50 (MCF7): 52.1 µM (inactive)
GI50 (NCI-H226): 42.6 µM (inactive)
GI50 (OVCAR-5): 36 µM (inactive)
GI50 (LOX IMVI): 22.1 µM (inactive)
GI50 (SK-OV-3): 85.7 µM (inactive)
GI50 (CCRF-CEM): 27.7 µM (inactive)
GI50 (HCT-15): 28.2 µM
GI50 (HCT-116): 17.2 µM (inactive)
GI50 (SF-295): 40.6 µM (inactive)
GI50 (ACHN): 56.8 µM (inactive)
GI50 (CAKI-1): 30.3 µM (inactive)
GI50 (SK-MEL-28): 24 µM (inactive)
GI50 (HCC 2998): 17.7 µM (inactive)
GI50 (SNB-19): 31.3 µM (inactive)
GI50 (SF-268): 20.2 µM (inactive)
GI50 (OVCAR-4): 50.8 µM (inactive)
GI50 (HOP-62): 57.4 µM (inactive)
GI50 (MDA-MB-435): 18.5 µM (inactive)
GI50 (HOP-92): 2.88 µM (inactive)
GI50 (EKVX): 18.3 µM (inactive)
GI50 (COLO 205): 20.6 µM (inactive)
GI50 (HT-29): 24.3 µM (inactive)
GI50 (SK-MEL-2): 15.4 µM (inactive)
GI50 (SNB-75): 31.4 µM (inactive)
GI50 (Hs-578T): 12.3 µM (inactive)
GI50 (NCI-H522): 11.4 µM (inactive)
GI50 (OVCAR-8): 26.4 µM (inactive)

C=CCCC1(CCP(=O)(c2ccccc2)c2ccccc2)OCCO1
GI50 (SF-539): > 100 µM (inactive)
GI50 (RPMI-8226): > 100 µM (inactive)
GI50 (RXF 393): > 100 µM (inactive)
GI50 (DU-145): > 100 µM (inactive)
GI50 (TK-10): > 100 µM (inactive)
GI50 (SK-MEL-5): > 100 µM (inactive)
GI50 (UO-31): > 100 µM (inactive)
GI50 (Malme-3M): > 100 µM (inactive)
GI50 (M14): > 100 µM (inactive)
GI50 (MDA-MB-231): > 100 µM (inactive)
GI50 (K562): > 100 µM (inactive)
GI50 (UACC-62): > 100 µM (inactive)
GI50 (SW-620): > 100 µM (inactive)
GI50 (OVCAR-3): > 100 µM (inactive)
GI50 (NCI-H460): > 100 µM (inactive)
GI50 (U-251): > 100 µM (inactive)
GI50 (SR): > 100 µM (inactive)
GI50 (A549): > 100 µM (inactive)
GI50 (MOLT-4): > 100 µM (inactive)
GI50 (MDA-N): > 100 µM (inactive)
GI50 (NCI/ADR-RES): > 100 µM (inactive)
GI50 (SN12C): > 100 µM (inactive)
GI50 (PC-3): > 100 µM (inactive)
GI50 (IGROV-1): > 100 µM (inactive)
GI50 (UACC-257): > 100 µM (inactive)
GI50 (HL-60): > 100 µM (inactive)
GI50 (786-0): > 100 µM (inactive)
GI50 (KM12): > 100 µM (inactive)
GI50 (NCI-H23): > 100 µM (inactive)
GI50 (BT-549): > 100 µM (inactive)
GI50 (MCF7): > 100 µM (inactive)
GI50 (OVCAR-5): > 100 µM (inactive)
GI50 (LOX IMVI): > 100 µM (inactive)
GI50 (CCRF-CEM): > 100 µM (inactive)
GI50 (HCT-15): > 100 µM
GI50 (HCT-116): > 100 µM (inactive)
GI50 (SF-295): > 100 µM (inactive)
GI50 (ACHN): > 100 µM (inactive)
GI50 (SK-MEL-28): > 100 µM (inactive)
GI50 (HCC 2998): > 100 µM (inactive)
GI50 (SNB-19): > 100 µM (inactive)
GI50 (SF-268): > 100 µM (inactive)
GI50 (HOP-62): > 100 µM (inactive)
GI50 (MDA-MB-435): > 100 µM (inactive)
GI50 (EKVX): > 100 µM (inactive)
GI50 (COLO 205): > 100 µM (inactive)
GI50 (HT-29): > 100 µM (inactive)
GI50 (SK-MEL-2): > 100 µM (inactive)
GI50 (SNB-75): > 100 µM (inactive)
GI50 (Hs-578T): > 100 µM (inactive)
GI50 (NCI-H522): 64.3 µM (inactive)
GI50 (OVCAR-8): > 100 µM (inactive)
